In patent US20220280405A1, “NOVEL COMPOUNDS FOR SKIN LIGHTENING” (Conopco, Inc. , d/b/a UNILEVER, priority 2019, published 2022):

Test system: Melanoderm human tissue (MEL-300-B, Mattek Corp.)
Test: Melanoderm assay (melanin quantitation)
Type: cell-based
Conditions: for Melanin (μg/μg protein): 12 d dosing, melanin normalized to protein, mean +/− standard deviation, n = 3
Procedure: Control compounds consisted of a negative control (ultrapure water), vehicle control (DMSO in ultrapure water—final concentration of 0.1%) and positive control (2% kojic acid in ultrapure water—final concentration of 700 uM). Test compounds where prepared in DMSO at 10 mM concentrations and diluted with EPI-100-LLMM media (Mattek Corp.) to a final concentration of 10 uM. Melanoderm human tissue (MEL-300-B, Mattek Corp.) was equilibrated with EPI-100-NMM media for 24 h, followed by equilibration with EPI-100-LLMM media for 48 h prior to treatment with test compounds and controls. Dosing and re-feeding of melanoderms with controls and test compounds continued for a total of 12 d following standard protocols and the melanoderms collected for melanin quantitation, viability analysis and macroscopic/microscopic imaging analysis. For melanin quantitation, tissues were suspended in PBS buffer (5 ml) for 5 min, removed from the PBS and washed/rinsed with additional PBS (2 ml). Tissues were treated with 1% sodium bicarbonate solution (300 ul) for 30 min, followed by removal of the sodium bicarbonate solution and washed/rinsed with PBS solution (2×2 ml). Tissues were suspended in Solvable reagent (500 ul) and incubated at 95° C. for 24 h along with melanin standard samples (prepared by suspending melanin (cat # M8631, Sigma-Aldrich) in Solvable reagent to generate melanin standards at 0, 2.5, 5, 10, 25, 50 and 100 ug). All incubated samples were centrifuged at 13000 rpm for 5 min and the optical density of the supernatant was read/determined at 490 nm. The amount of melanin (ug) from each tissue sample was determined from the melanin standard samples calibration curve. Protein concentration of tissue samples was determined using the BCA protein assay kit (Pierce) and melanin content was normalized and expressed as melanin (ug)/protein (ug) (Table 1). Tissue viability as a result of test compound dosing/feeding relative to negative and vehicle controls was determined using the WST-1 reagent kit (cat # 05015944001, Roche). […]

SMILES	melanin content / skin lightening effect (in words) (melanoderm treatment, 10 uM, compared to vehicle control)	Melanin (μg/μg protein) (test compound 10 uM)	Melanin (μg/μg protein) (positive control 700 μM)
CC(C)Oc1ccc(C(NC2CCOCC2)C2CCCCC2)cc1 (stereo not drawn) [Compound of example 1, N-(cyclohexyl(4-isopropoxyphenyl)methyl)tetrahydro-2H-pyran-4-amine]	reduced melanin content	0.177 +/− 0.019 μg/μg protein	–
O=c1cc(CO)occ1O [Kojic acid, reference compound]	–	–	0.128 +/− 0.004 μg/μg protein
